How the values were obtained:
CAMK1b = CAMK1b (Homo sapiens, UniProt Q6P2M8); conditions: 1 μM; Run 1, Run 2
CAMK2g = CAMK2g (Homo sapiens, UniProt Q13555); conditions: 1 μM; Run 1, Run 2
CDK6/cyclin D1 = CDK6/cyclin D1 (Homo sapiens, UniProt Q00534); conditions: 1 μM; Run 1, Run 2
DYRK1B = DYRK1B (Homo sapiens, UniProt Q9Y463); conditions: 1 μM; Run 1, Run 2
EPHA6 = target: T1, EPHA6 (Homo sapiens, UniProt Q9UF33); conditions: 1 μM; Run 1, Run 2
T1 sequence (Q9UF33 23-1036): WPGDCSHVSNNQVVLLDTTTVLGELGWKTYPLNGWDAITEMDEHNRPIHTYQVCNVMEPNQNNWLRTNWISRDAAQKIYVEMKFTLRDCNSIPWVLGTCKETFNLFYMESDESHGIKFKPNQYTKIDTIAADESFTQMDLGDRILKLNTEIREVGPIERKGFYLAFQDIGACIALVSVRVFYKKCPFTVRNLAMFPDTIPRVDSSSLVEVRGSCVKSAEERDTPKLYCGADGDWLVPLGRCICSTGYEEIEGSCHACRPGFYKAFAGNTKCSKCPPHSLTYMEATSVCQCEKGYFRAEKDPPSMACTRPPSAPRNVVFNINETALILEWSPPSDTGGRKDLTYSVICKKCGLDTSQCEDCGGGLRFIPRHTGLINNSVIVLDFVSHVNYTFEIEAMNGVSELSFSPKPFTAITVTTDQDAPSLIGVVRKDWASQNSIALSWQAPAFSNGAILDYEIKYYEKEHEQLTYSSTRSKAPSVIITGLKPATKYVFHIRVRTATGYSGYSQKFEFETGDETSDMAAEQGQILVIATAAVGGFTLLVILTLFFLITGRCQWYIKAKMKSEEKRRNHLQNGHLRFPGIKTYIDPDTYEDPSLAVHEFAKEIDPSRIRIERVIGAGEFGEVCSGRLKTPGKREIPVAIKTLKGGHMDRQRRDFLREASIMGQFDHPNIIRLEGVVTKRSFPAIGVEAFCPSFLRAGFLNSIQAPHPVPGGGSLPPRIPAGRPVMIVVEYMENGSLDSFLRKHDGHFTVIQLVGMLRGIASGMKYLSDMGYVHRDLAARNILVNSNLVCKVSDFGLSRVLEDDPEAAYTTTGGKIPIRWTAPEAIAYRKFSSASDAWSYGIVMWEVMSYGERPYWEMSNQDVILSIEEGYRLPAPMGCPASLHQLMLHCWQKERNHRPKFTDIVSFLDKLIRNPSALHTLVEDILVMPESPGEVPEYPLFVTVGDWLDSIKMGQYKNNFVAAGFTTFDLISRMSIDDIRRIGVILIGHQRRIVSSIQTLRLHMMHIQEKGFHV

FES/FPS = FES/FPS (Homo sapiens, UniProt P07332); conditions: 1 μM; Run 1, Run 2
Sequence of FES/FPS (P07332 whole entry): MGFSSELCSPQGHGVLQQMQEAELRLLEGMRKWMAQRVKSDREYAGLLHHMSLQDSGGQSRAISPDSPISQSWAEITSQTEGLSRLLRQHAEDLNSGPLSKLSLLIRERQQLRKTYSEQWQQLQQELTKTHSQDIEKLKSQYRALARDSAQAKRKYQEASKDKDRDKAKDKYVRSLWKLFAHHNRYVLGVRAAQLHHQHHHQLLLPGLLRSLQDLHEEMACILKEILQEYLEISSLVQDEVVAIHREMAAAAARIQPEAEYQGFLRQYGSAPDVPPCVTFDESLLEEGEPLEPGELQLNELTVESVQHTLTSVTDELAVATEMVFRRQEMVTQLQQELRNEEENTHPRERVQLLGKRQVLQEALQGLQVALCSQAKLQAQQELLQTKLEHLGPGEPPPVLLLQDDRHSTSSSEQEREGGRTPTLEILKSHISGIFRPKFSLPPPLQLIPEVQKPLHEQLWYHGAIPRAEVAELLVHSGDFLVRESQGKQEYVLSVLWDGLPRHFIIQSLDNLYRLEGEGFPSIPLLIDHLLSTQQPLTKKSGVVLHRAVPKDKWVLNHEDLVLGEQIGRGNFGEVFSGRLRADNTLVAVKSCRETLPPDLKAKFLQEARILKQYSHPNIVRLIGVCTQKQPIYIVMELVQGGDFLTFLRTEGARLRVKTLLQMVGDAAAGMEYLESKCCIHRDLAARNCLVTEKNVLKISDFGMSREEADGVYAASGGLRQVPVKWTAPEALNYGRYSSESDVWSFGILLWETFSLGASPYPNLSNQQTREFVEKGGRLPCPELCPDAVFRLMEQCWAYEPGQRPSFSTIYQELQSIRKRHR

MARK4 = target: T2, MARK4 (Homo sapiens, UniProt Q96L34); conditions: 1 μM; Run 1, Run 2
T2 sequence (Q96L34 1-752): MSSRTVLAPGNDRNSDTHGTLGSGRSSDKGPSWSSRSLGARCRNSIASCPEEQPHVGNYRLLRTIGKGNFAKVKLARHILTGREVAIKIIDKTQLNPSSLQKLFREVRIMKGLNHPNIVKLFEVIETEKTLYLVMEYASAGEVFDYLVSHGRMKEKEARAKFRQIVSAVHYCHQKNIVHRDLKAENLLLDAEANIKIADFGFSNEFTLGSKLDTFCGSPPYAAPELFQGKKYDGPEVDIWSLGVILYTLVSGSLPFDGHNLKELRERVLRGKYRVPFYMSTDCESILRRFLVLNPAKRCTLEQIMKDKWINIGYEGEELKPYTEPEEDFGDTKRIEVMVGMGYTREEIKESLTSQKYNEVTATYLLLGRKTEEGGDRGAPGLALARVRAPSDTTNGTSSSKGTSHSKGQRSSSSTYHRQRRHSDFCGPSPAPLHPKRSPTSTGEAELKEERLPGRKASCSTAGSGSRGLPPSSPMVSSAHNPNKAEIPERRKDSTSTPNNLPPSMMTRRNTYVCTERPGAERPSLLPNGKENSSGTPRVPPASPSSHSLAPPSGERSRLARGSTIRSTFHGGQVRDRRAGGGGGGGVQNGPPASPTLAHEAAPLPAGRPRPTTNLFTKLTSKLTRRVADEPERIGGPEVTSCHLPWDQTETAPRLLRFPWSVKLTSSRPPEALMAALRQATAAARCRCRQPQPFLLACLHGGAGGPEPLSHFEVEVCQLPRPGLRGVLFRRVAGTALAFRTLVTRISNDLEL

PKAcg = PKAcg (Homo sapiens, UniProt P22612); conditions: 1 μM; Run 1, Run 2
Sequence of PKAcg (P22612 whole entry): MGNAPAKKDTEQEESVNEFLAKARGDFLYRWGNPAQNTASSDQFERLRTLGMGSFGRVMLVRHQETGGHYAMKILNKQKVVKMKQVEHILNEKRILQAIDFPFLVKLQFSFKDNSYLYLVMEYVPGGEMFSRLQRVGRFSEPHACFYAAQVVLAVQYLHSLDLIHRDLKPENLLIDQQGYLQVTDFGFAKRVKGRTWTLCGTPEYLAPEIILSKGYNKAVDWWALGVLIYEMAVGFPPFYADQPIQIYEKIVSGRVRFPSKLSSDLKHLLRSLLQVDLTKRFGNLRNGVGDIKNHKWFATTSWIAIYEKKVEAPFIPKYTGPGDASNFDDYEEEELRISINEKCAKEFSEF

PYK2 = PYK2 (Homo sapiens, UniProt Q14289); conditions: 1 μM; Run 1, Run 2
Sequence of PYK2 (Q14289 whole entry): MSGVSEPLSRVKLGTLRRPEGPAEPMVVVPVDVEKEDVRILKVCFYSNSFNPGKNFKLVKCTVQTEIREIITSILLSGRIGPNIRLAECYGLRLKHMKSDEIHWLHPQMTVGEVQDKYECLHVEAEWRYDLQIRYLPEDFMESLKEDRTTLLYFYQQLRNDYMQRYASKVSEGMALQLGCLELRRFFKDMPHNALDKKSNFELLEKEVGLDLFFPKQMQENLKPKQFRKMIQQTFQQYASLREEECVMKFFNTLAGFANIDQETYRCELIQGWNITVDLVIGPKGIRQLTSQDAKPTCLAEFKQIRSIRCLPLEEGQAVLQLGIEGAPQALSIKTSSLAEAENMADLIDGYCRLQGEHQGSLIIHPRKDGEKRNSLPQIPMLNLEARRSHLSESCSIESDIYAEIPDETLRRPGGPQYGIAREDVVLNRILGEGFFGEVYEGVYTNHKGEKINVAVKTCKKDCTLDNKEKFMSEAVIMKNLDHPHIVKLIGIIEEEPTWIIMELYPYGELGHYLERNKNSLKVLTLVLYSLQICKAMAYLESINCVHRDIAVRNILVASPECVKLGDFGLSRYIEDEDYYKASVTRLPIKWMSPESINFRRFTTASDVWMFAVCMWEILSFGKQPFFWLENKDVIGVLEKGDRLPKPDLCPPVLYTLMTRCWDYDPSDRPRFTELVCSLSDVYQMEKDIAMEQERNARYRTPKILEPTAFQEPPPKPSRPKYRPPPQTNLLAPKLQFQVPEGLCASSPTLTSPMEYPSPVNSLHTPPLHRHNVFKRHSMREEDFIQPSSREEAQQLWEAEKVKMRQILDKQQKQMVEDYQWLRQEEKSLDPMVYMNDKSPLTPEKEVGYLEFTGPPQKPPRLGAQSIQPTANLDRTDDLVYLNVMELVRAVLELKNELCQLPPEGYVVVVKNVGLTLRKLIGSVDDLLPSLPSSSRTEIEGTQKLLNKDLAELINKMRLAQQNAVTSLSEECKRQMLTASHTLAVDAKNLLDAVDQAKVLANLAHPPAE

SRMS = SRMS (Homo sapiens, UniProt Q9H3Y6); conditions: 1 μM; Run 1, Run 2
Sequence of SRMS (Q9H3Y6 whole entry): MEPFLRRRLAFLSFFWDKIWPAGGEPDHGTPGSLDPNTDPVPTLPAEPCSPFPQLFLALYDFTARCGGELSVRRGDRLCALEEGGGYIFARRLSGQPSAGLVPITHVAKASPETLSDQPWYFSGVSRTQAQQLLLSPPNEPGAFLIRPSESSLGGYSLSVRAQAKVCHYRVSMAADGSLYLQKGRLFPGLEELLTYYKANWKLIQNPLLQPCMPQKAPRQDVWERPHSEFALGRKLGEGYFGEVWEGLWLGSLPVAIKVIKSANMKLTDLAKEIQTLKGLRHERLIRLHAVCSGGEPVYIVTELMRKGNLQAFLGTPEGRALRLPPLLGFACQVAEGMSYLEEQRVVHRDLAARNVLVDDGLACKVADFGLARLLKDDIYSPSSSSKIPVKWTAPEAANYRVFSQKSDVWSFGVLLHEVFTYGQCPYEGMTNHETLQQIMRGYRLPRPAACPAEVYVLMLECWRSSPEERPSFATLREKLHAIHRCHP

VRK2 = VRK2 (Homo sapiens, UniProt Q86Y07); conditions: 1 μM; Run 1, Run 2
Sequence of VRK2 (Q86Y07 whole entry, species assumed): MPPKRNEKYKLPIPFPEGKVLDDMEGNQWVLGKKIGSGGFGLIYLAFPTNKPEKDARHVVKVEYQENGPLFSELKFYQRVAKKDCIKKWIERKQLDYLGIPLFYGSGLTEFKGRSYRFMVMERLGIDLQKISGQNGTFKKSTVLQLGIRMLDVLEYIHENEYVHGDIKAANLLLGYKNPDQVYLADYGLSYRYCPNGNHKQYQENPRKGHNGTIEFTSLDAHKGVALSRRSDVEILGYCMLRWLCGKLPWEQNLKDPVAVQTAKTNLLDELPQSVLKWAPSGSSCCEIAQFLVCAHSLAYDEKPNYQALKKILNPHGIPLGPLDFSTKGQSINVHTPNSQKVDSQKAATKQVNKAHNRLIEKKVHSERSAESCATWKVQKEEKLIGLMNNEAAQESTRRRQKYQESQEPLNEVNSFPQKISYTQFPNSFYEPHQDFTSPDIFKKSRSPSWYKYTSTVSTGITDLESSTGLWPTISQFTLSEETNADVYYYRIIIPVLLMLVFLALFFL

WNK3 = WNK3 (Homo sapiens, UniProt Q9BYP7); conditions: 1 μM; Run 1, Run 2
CDK2/cyclin E = CDK2/cyclin E (Homo sapiens, UniProt P24941); test: biochemical; conditions: read-out: % enzyme activity, 1 μM; Run 1, Run 2
CDK6/cyclin D3 = CDK6/cyclin D3 (Homo sapiens, UniProt Q00534); test: biochemical; conditions: read-out: % enzyme activity, 1 μM; Run 1, Run 2
GRK6 = GRK6 (Homo sapiens, UniProt P43250); test: biochemical; conditions: read-out: % enzyme activity, 1 μM; Run 1, Run 2
Sequence of GRK6 (P43250 whole entry): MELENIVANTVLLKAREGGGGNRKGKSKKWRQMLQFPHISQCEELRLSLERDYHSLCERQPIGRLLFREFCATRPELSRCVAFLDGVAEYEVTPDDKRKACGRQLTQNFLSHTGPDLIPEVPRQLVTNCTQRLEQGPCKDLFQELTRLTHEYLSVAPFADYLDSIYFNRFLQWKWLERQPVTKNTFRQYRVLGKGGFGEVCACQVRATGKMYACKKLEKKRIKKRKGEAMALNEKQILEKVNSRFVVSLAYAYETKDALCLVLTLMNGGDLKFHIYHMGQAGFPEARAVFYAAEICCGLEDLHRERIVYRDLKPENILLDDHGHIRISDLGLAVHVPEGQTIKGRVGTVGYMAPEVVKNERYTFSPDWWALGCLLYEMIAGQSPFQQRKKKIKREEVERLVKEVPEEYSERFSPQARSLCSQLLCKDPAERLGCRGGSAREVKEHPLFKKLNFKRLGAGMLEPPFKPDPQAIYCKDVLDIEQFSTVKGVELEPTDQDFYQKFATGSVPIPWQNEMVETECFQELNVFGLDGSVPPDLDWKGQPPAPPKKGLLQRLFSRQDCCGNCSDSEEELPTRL

Sequence of CAMK1b (Q6P2M8 whole entry): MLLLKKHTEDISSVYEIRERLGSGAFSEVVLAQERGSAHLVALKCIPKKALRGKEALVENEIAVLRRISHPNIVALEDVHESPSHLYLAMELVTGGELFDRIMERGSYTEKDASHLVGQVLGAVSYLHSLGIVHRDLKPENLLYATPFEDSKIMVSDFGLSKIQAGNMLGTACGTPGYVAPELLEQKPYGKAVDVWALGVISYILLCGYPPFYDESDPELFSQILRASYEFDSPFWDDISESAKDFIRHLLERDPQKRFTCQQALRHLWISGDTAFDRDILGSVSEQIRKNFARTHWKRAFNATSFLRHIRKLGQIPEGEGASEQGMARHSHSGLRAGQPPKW
Sequence of CAMK2g (Q13555 whole entry): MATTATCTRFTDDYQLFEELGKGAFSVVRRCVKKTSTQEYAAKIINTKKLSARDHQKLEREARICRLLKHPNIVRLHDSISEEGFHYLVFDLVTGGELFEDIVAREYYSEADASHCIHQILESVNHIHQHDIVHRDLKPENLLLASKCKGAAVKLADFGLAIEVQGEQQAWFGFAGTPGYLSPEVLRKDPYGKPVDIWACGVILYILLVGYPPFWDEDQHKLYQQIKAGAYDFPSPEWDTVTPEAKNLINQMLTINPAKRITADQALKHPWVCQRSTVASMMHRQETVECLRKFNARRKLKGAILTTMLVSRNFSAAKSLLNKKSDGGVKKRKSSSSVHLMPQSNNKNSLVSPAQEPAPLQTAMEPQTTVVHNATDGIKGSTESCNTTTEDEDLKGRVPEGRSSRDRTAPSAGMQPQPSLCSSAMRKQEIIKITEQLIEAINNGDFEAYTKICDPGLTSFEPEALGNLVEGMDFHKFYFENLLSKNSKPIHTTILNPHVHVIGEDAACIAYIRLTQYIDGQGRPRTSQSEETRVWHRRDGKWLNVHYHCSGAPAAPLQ

Compound	% enzyme activity (CAMK1b)	% enzyme activity (CAMK2g)	% enzyme activity (CDK6/cyclin D1)	% enzyme activity (DYRK1B)	% enzyme activity (EPHA6)	% enzyme activity (FES/FPS)	% enzyme activity (MARK4)	% enzyme activity (PKAcg)	% enzyme activity (PYK2)	% enzyme activity (SRMS)	% enzyme activity (VRK2)	% enzyme activity (WNK3)	remaining activity at 1 µM (CDK2/cyclin E)	remaining activity at 1 µM (CDK6/cyclin D3)	remaining activity at 1 µM (GRK6)
COc1cc(-c2cncc(-c3ccc(N4C[C@@H](C)N(C)[C@@H](C)C4)cc3)c2C)cc(F)c1C(N)=O [Compound 26c, 2-Fluoro-6-methoxy-4-(4-methyl-5-(4-((3R,5S)-3,4,5-trimethylpiperazin-1-yl)phenyl)pyridin-3-yl)benzamide]	99.02%	107.66%	92.80%	58.52%	103.73%	98.66%	95.76%	98.97%	85.73%	95.91%	89.63%	92.59%	102%	103%	97.1%
COc1cc(-c2cncc(-c3ccc(N4CCN(C)CC4)cc3)c2C)cc(F)c1C(N)=O [Compound 26a, 2-Fluoro-6-methoxy-4-(4-methyl-5-(4-(4-methylpiperazin-1-yl)phenyl)pyridin-3-yl)benzamide]	95.63%	100.65%	97.80%	39.80%	103.54%	99.20%	82.62%	93.99%	85.65%	95.09%	87.47%	88.15%	105%	86.3%	109%

— paper PMC8213057, “Targeting ALK2: An Open Science Approach to Developing Therapeutics for the Treatment of Diffuse Intrinsic Pontine Glioma” (Journal of Medicinal Chemistry, 2020)
